Entries after “also recorded” stand apart in the source; their conditions may differ. Where two headings read alike, the source gives them in different places.
Legend:
human CF airway cultures = test: ASL viscosity in human CF airway cultures; format: cell-based
Description: (A) Effect of saline or THAM on ASL viscosity in humanCF airway cultures. […] Data are mean±SEM. n=6 individual donors/group. * p<0.05, t-test.
Two approaches are used to investigate the viscoelastic properties of airway mucus. […] Second, in airway epithelial cell cultures from non-CF and CF newborn pig and human donors, mucus viscosity (±THAM) is estimated by measuring the diffusion of fluorescent FITC-dextran with a FRAP assay and ASL/mucus pH using the pH indicator SNARF-1 (FIG. 11D&13A). Viscosity is directly correlated to diffusion. If the viscosity is high, FITC-dextran will slowly diffuse to the photo-bleached ASL areas.

[1] = system: nasal pH of healthy volunteers; test: Nasal pH of healthy human volunteers after instillation; format: in vivo; conditions: for nasal pH: 250 μl of 0.3 M solution
Protocol: (§1) Prior to each study the pH probe was calibrated in buffer solutions of pH 6, 7 and 8 (VWR, West Chester, PA). Voltage was recorded with an Oakton pH6+ meter (Cole-Palmer, Vernon Hills, IL) and corrected to temperature. The probe was positioned at 6 cm from the most caudal aspect of the columella. The probe remained in position until the readings were stable. All measurements were taken from the right nostril and by the same operator. Subjects on intranasal medications (steroids or anticholinergics) or with history of nasal or sinus surgery were excluded from the study.

[2] = system: tracheal ASL of non-CF piglets; test: Tracheal ASL pH of non-CF (wild type) newborn piglets after aerosolized buffer; format: in vivo, pig
Description: (§2) To measure pH in pigs in vivo, non-invasive dual lifetime referencing was used to interrogate a 3×3 mm planar optode (pH sensitive foil, PreSens GmbH) applied directly to the tracheal surface of anesthetized pigs (Pezzulo A A, Tang X X, Hoegger M J, Alaiwa M H, Ramachandran S, Moninger T O, et al. Reduced airway surface pH impairs bacterial killing in the porcine cystic fibrosis lung. Nature. 2012; 487(7405):109-13. Epub 2012/07/06. doi: 10.1038/nature11130. PubMed PMID: 22763554; PubMed Central PMCID: PMC3390761). pH-dependent polarized light phase shift was measured using a single channel pH meter (pH-1 mini; PreSens GmbH). The tip of the fiber optic pH meter was kept at the same constant distance from the tracheal surface in all samples and confirmed by recording the amplitude. Calibration before each set of measurements was done by measuring phase shift from flat filters soaked in standard pH buffers. All measurements were obtained in a humidified chamber at 37° C. and constant 5% CO2 to mimic physiologic conditions.
(§3) Pigs were initially sedated with Ketamine (20 mg/kg, IM injection) and Xylazine (2 mg/kg, IM injection) and anesthetized using Propofol (2 mg/kg, IV injection). The trachea was surgically exposed and accessed anteriorly. A small anterior window through the tracheal rings accessed a tracheal window to interventions and pH measurements. All studies obtained in a 100% humidified chamber at 37° C. and constant 5% CO2 to mimic physiologic conditions.

S. aureus [3] = test: CF sputum bacterial killing, bacteria-coated grids assay; format: cell-based, S. aureus (SH1000); conditions: for bacterial killing in human CF sputum: grid assay, compared to saline
Protocol: Adults diagnosed with CF were recruited. Patients were asked to swallow saliva and to expectorate all secretions during routine clinic visits. Sputum plugs were visually identified and separated from saliva, weighed and stored at −70° C. in small, tightly sealed containers to minimize water loss under needed. […] To guarantee adequate mixing of sputum with the different solutions, the mixture was homogenized (Sonic Dismembrator Model 100, Fisher Scientific) for 30 seconds. All experiments were conducted in a humidified chamber with constant 5% CO2.
To interrogate individual bacteria killing in CF sputum or in pigs, bacteria-coated grids assay were used (Pezzulo A A, Tang X X, Hoegger M J, Alaiwa M H, Ramachandran S, Moninger T O, et al. Reduced airway surface pH impairs bacterial killing in the porcine cystic fibrosis lung. Nature. 2012; 487(7405):109-13. Epub 2012/07/06. doi: 10.1038/nature11130. PubMed PMID: 22763554; PubMed Central PMCID: PMC3390761; Abou Alaiwa M H, Reznikov L R, Gansemer N D, Sheets K A, Horswill A R, Stoltz D A, et al. pH modulates the activity and synergism of the airway surface liquid antimicrobials beta-defensin-3 and LL-37. Proceedings of the National Academy of Sciences of the United States of America. 2014; 111(52):18703-8. doi: 10.1073/pnas.1422091112. PubMed PMID: 25512526; PubMed Central PMCID: PMC4284593). Gold grids (200 mesh, Ted Pella) were functionalized using a series of intervention: 100 mM 11-mercaptoundecanoic acid (MUA in 100% alcohol, Aldrich) for 60 min at room temperature, 1:1 mixture of 100 mM N-ethyl-N-(3-[…]) carbodiimide) (EDC) and 100 mM N-hydroxysuccinimide (NETS) for 30 min at room temperature, 0.1 mg/ml Neutravidin (Sigma) at 37° C. for 1 hour.
Two different strains of S. aureus were used (SH1000 a human strain for CF sputum killing studies and SA43 a porcine strain for pig studies). Bacteria were grown to mid-log phase, incubated with 0.2 mg/ml N-hydroxysulphosuccinimide (sulpho-NHS)-biotin for 60 min at room temperature, quenched with 100 mM glycine to bind excess free biotin and allowed to attach to Neutravidin-coated grids for 15 minutes prior to the experiment.
After bacteria-coated grids were exposed to pig trachea for 5 minutes or CF sputum for 15 minutes, they were immediately rinsed in phosphate buffered saline and stained with SYTO9/propidium iodide (Live/Dead BacLight Bacterial viability assay, Invitrogen), mounted on slides and imaged on a laser-scanning confocal microscope (Olympus FV1000). Live (green) and dead (red) bacteria were automatically counted using Image-based Tool for Counting Nuclei (ITCN 1.6, UCSB Center for Bio-Image Informatics, UC San Barbara) an ImageJ (U.S. National Institutes of Health, Bethesda, Maryland, USA) plugin.

[4] = Buffering capacity by acid titration; format: physicochemical; conditions: 0.3 M tromethamine titrated with 0.1 M HCl
Protocol: 100 mM HCl was delivered into 5 mL of buffer at a rate of 0.2 ml/min. Titration was carried out to endpoint of pH 3. The volume of HCl delivered was recorded and used to calculate the acid equivalents needed to […] pH by 1 unit or buffering capacity.

human subjects = conditions: 24 h after aerosolized nasal delivery
Protocol: as §1

[5] = system: nasal pH of subjects with cystic fibrosis (CF)
Protocol: as §1

mice = system: mice
Description: FIGS. 14A-14G. […] (A) BAL pH measured 3.5 hr after THAM inhalation. Mice were aerosolized with THAM (10× dose used in our prior human studies) or water (ctrl) in a whole-body exposure chamber for 3.5 hrs/d (5 d total). 3 d later mice were euthanized/studied. (B) BAL-total cell cts. (C) BAL-% alveolar macrophages. (D) BAL-LDH activity. […] (F) Airway resistance (FlexiVent). […] (G) Lung histology (HE). Data are mean±SEM. n=4-10/group. * p<0.05, t-test. Some SEM bars are hidden in mean bars.

[6] = system: nasal epithelia of CF subjects
Description: Methods Mol Biol. 2011; 741:69-86. doi: 10.1007/978-1-61779-117-8_6. PubMed PMID: 21594779; PubMed Central PMCID: PMCPMC3760477).

non-CF newborn pig = conditions: PARI LC-PLUS nebulizer, distal mainstem bronchi
Description: THAM was aerosolized into a sedated, non-CF newborn pig with a PARI LC-PLUS® nebulizer, using a cone mask over the snout. After sedation, a pH probe was passed through the vocal cords and into the distal mainstem bronchi. ASL pH was continuously measured.

[7] = intravenous, cited from earlier work
[8] = system: tracheal ASL of CF piglets; conditions: 15 minutes after aerosolized tromethamine
Description: as §2
as §3, with “All studies obtained in a 100% humidified chamber at 37° C. and constant 5% CO2 to mimic physiologic conditions.” left out

[9] = system: human non-CF/CF airway epithelial cultures; conditions: THAM (1 μl), pH at 0 & 15 m
Protocol: FIGS. 15A-15B. […] (A) THAM (1 μl) was applied to human n non-CF/CF airway epithelial cultures. pH was measured at 0 & 15 m with SNARF. Data are mean±SEM. n=6 donors/group. * p<0.05, t-test.

S. aureus [10] = conditions: 15 minutes after aerosolized tromethamine, compared to NaCl
Protocol: Pigs were initially sedated with Ketamine (20 mg/kg, IM injection) and Xylazine (2 mg/kg, IM injection) and anesthetized using Propofol (2 mg/kg, IV injection). The trachea was surgically exposed and accessed anteriorly. A small anterior window through the tracheal rings accessed a tracheal window to interventions and pH measurements. All studies obtained in a 100% humidified chamber at 37° C. and constant 5% CO2 to mimic physiologic conditions. […]

coagulase-negative = conditions: aerosolized, non-CF subjects; cited from earlier work

## O=C([O-])O.[Na+] [NaHCO3]
Human CF airway cultures
  ASL viscosity: reduced viscosity
S. aureus Xen-29; constant pH 7.5, absence of Ca2+ & Mg2+, 1 μg/ml hBD-3, NaHCO3 10-80 mM
  effect of increasing HCO3− concentration on hBD-3 antimicrobial activity: slightly inhibited
S. aureus Xen-29; constant pH 7.5, absence of Ca2+ & Mg2+, 100 μm/ml LL-37, NaHCO3 10-80 mM
  effect of increasing HCO3− concentration on LL-37 antimicrobial activity: slightly inhibited
S. aureus Xen-29; constant pH 7.5, presence of 1 mM Ca2+ & 1 mM Mg2+, 5 μg/ml hBD-3
  effect of increasing HCO3− concentration on hBD-3 antimicrobial activity: inhibited
S. aureus Xen-29; constant pH 7.5, presence of 1 mM Ca2+ & 1 mM Mg2+, 100 μm/ml LL-37
  effect of increasing HCO3− concentration on LL-37 antimicrobial activity: inhibited
[1]; 250 μl of 2% (238 mM) NaHCO3
  time for nasal pH to return to baseline: ≤ 60 minutes
[1]; 250 μl of 2% (238 mM) NaHCO3 aerosolized into the nose
  nasal ASL pH: increased ASL pH
[1]; NaHCO3 increased to 5% or 7%
  effect of a higher concentration on the duration of the rise in nasal pH: no additional effect
[2]; 250 μl of 200 mM NaHCO3 aerosolized onto exposed trachea
  tracheal ASL pH: alkalinized ASL pH
[2]; NaHCO3/HCO3− aerosol, non-CF piglet trachea
  time for ASL pH to return to baseline: ≤ 30 minutes
S. aureus [3]
  bacterial killing in human CF sputum: improved bacterial killing to non-CF levels
S. aureus [3]; sputum mixed 1:1 v/v with 200 mM NaHCO3, compared to equimolar NaCl, grids recovered after 15 minutes
  CF sputum ability to kill S. aureus: increased the CF sputum ability to kill S. aureus

## NC(CO)(CO)CO [tromethamine, tris(hydroxymethyl)aminomethane]
[4]
  additional buffering range at lower pH values: 3-6 pH
Human subjects
  adverse effects reported: no adverse effects
[5]; 250 μl tromethamine
  nasal pH: increased nasal pH
[5]; 250 μl tromethamine, 30 minutes was the total duration of the experiment
  duration of increased nasal pH: 30 minutes
[5]; 30 min after THAM aerosolization into the nose of people with CF
  pH change at 30 min as share of the maximal pH response: ~ 80%
mice; BAL pH 3.5 hr after THAM inhalation
  airway (BAL) pH: raised the airway pH
mice; mouse, in vivo
  BAL other proinflammatory cytokines, THAM vs water control: no difference
  clinical signs, gross pathology, BAL cell counts/cytokines/LDH, bronchoconstriction, histopathology: no adverse treatment related findings
  tolerability of THAM exposure: well tolerated
[6]; baseline vs 30 min after 250 μl 0.3 M tromethamine
  nasal voltage: no effect
[6]; inferred from nasal voltage
  epithelial barrier integrity: no disruption
non-CF newborn pig
  airway alkalinization over time: Prolonged Airway Alkalinization
[7]; serum
  persistence of serum alkalinizing effect: 16 to 48 h
[7]
  half-life when given intravenously: long half-life
Human CF airway cultures
  ASL viscosity: reduced viscosity
[8]
  tracheal ASL pH: increased pH
S. aureus Xen-29; 10 mM tromethamine (pH 8.65) vs 10 mM xylitol (pH 7.02), 1 μg/ml hBD-3, ionic strength 125 mM
  effect on hBD-3 antimicrobial activity: enhanced
S. aureus Xen-29; 10 mM tromethamine (pH 8.65) vs 10 mM xylitol (pH 7.02), 10 μg/ml LL-37, ionic strength 125 mM
  effect on LL-37 antimicrobial activity: enhanced
[1]
  nasal pH: alkalinized the nasal pH
[1]; 30 min after THAM aerosolization, non-CF noses
  pH change at 30 min as share of the maximal pH response: 30%
[9]
  alkalinization of CF vs non-CF epithelia: Alkalinizes CF Epithelia Greater than Non-CF
[2]; 250 μl 0.3M tromethamine
  tracheal ASL pH immediately after administration: raised pH
[2]; 250 μl 0.3M tromethamine, 60 minutes
  tracheal ASL pH at 60 minutes: still higher than baseline
S. aureus [10]; listed as THAM
  ASL bacterial killing: acutely restored ASL bacterial killing
S. aureus [10]; listed as Tromethamine
  ASL bacterial killing: enhanced bacterial killing
S. aureus [3]
  bacterial killing in human CF sputum: improved bacterial killing to non-CF levels; also recorded: acutely restored ASL bacterial killing
S. aureus [3]; sputum mixed 1:1 (w/v) with 300 mM tromethamine ± 1197 mM (7%) NaCl, compared to hypertonic saline alone
  ability of CF sputum to kill S. aureus: increased the ability of CF sputum to kill S. aureus

## OC[C@@H](O)[C@H](O)[C@@H](O)CO [xylitol]
coagulase-negative
  nasal coagulase-negative S. aureus colonization: decreased
[1]
  nasal pH: no effect
